In PubChem BioAssay (NCI):
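Step 1: Grow cells in 96-well plates. Step 2: Expose to compound for 48 hours at 5 concentrations. Step 3: Interpolate endpoints linearly; if unreached, use highest concentration. The concentration for 50% growth inhibition is given as GI50. TGI: concentration producing complete growth inhibition.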

What was measured:
Test in all cases: DTP human tumour cell line panel, 48 h
DU-145 prostate = system: DU-145 prostate
UO-31 renal = system: UO-31 renal
RXF 393 renal = system: RXF 393 renal
MCF7 breast = system: MCF7 breast
CCRF-CEM leukemia = system: CCRF-CEM leukemia
HOP-62 NSCLC = system: HOP-62 NSCLC
SW-620 colon = system: SW-620 colon
OVCAR-5 ovarian = system: OVCAR-5 ovarian
IGROV1 ovarian = system: IGROV1 ovarian
NCI-H522 lung = system: NCI-H522 lung
OVCAR-3 ovarian = system: OVCAR-3 ovarian
786-0 renal = system: 786-0 renal
NCI/ADR-RES ovarian = system: NCI/ADR-RES ovarian
HCT-15 colon = system: HCT-15 colon
K-562 leukemia = system: K-562 leukemia
NCI-H23 lung = system: NCI-H23 lung
SF-295 CNS = system: SF-295 CNS
SK-MEL-28 melanoma = system: SK-MEL-28 melanoma
SNB-19 CNS = system: SNB-19 CNS
SF-268 CNS = system: SF-268 CNS
SN12C renal = system: SN12C renal
A549 NSCLC = system: A549 NSCLC
SR leukemia = system: SR leukemia
RPMI-8226 leukemia = system: RPMI-8226 leukemia
SNB-75 CNS = system: SNB-75 CNS
HS 578T breast = system: HS 578T breast
T-47D breast = system: T-47D breast
MDA-MB-435 = system: MDA-MB-435
HT29 colon = system: HT29 colon
U251 CNS = system: U251 CNS
SF-539 CNS = system: SF-539 CNS
A498 renal = system: A498 renal
HCC-2998 colon = system: HCC-2998 colon
MALME-3M melanoma = system: MALME-3M melanoma
SK-OV-3 ovarian = system: SK-OV-3 ovarian
OVCAR-8 ovarian = system: OVCAR-8 ovarian
SK-MEL-2 melanoma = system: SK-MEL-2 melanoma
OVCAR-4 ovarian = system: OVCAR-4 ovarian
COLO 205 colon = system: COLO 205 colon
BT-549 breast = system: BT-549 breast
EKVX NSCLC = system: EKVX NSCLC
UACC-257 melanoma = system: UACC-257 melanoma
M14 melanoma = system: M14 melanoma
NCI-H460 lung = system: NCI-H460 lung
MOLT-4 leukemia = system: MOLT-4 leukemia
HL-60(TB) leukemia = system: HL-60(TB) leukemia
KM12 colon = system: KM12 colon
HOP-92 NSCLC = system: HOP-92 NSCLC
ACHN renal = system: ACHN renal
PC-3 prostate = system: PC-3 prostate
LOX IMVI melanoma = system: LOX IMVI melanoma
SK-MEL-5 melanoma = system: SK-MEL-5 melanoma
UACC-62 melanoma = system: UACC-62 melanoma
TK-10 renal = system: TK-10 renal
CAKI-1 renal = system: CAKI-1 renal
NCI-H226 lung = system: NCI-H226 lung
MDA-MB-231 breast = system: MDA-MB-231 breast
HCT-116 colon = system: HCT-116 colon
MDA-N = system: MDA-N

## CCCCNc1nc(NC(C)(C)C)nc(NC(C)(C)C)n1
DU-145 prostate
  GI50: 8.82 µM
  TGI: > 100 µM
UO-31 renal
  GI50: 7.41 µM
  TGI: > 100 µM
RXF 393 renal
  GI50: 8.07 µM
  TGI: 76.9 µM
MCF7 breast
  GI50: 9.94 µM
  TGI: > 100 µM
CCRF-CEM leukemia
  GI50: 3.18 µM
  TGI: > 100 µM
HOP-62 NSCLC
  GI50: 18.7 µM
  TGI: > 100 µM
SW-620 colon
  GI50: 7.2 µM
  TGI: > 100 µM
OVCAR-5 ovarian
  GI50: 15.2 µM
  TGI: > 100 µM
IGROV1 ovarian
  GI50: 16.3 µM
  TGI: > 100 µM
NCI-H522 lung
  GI50: 6.32 µM
  TGI: > 100 µM
OVCAR-3 ovarian
  GI50: 12.6 µM
  TGI: > 100 µM
786-0 renal
  GI50: 30.7 µM
  TGI: > 100 µM
NCI/ADR-RES ovarian
  GI50: 3.31 µM
  TGI: > 100 µM
HCT-15 colon
  GI50: 2.97 µM
  TGI: > 100 µM
K-562 leukemia
  GI50: 6.46 µM
  TGI: > 100 µM
NCI-H23 lung
  GI50: 5.89 µM
  TGI: > 100 µM
SF-295 CNS
  GI50: 6.03 µM
  TGI: > 100 µM
SK-MEL-28 melanoma
  GI50: 30 µM
  TGI: > 100 µM
SNB-19 CNS
  GI50: 17.6 µM
  TGI: > 100 µM
SF-268 CNS
  GI50: 48.4 µM
  TGI: > 100 µM
SN12C renal
  GI50: 3.1 µM
  TGI: > 100 µM
A549 NSCLC
  GI50: 4.41 µM
  TGI: > 100 µM
SR leukemia
  GI50: 2.8 µM
  TGI: 12.9 µM
RPMI-8226 leukemia
  GI50: 1.4 µM
  TGI: > 100 µM
SNB-75 CNS
  GI50: 12.8 µM
  TGI: 68.7 µM
HS 578T breast
  GI50: 21.1 µM
  TGI: > 100 µM
T-47D breast
  GI50: 15.2 µM
  TGI: > 100 µM
MDA-MB-435
  GI50: 31.8 µM
  TGI: > 100 µM
HT29 colon
  GI50: 2.37 µM
  TGI: > 100 µM
U251 CNS
  GI50: 5.92 µM
  TGI: 36.7 µM
SF-539 CNS
  GI50: 16.9 µM
  TGI: > 100 µM
A498 renal
  GI50: 2.98 µM
  TGI: 50.4 µM
HCC-2998 colon
  GI50: 8.05 µM
  TGI: > 100 µM
MALME-3M melanoma
  GI50: 49.4 µM
  TGI: > 100 µM
SK-OV-3 ovarian
  GI50: 19.4 µM
  TGI: > 100 µM
OVCAR-8 ovarian
  GI50: 4.74 µM
  TGI: > 100 µM
SK-MEL-2 melanoma
  GI50: 15.4 µM
  TGI: > 100 µM
OVCAR-4 ovarian
  GI50: 3.03 µM
  TGI: > 100 µM
COLO 205 colon
  GI50: 4.44 µM
  TGI: > 100 µM
BT-549 breast
  GI50: 19.1 µM
  TGI: > 100 µM
EKVX NSCLC
  GI50: 3.12 µM
  TGI: > 100 µM
UACC-257 melanoma
  GI50: 81.3 µM
  TGI: > 100 µM
M14 melanoma
  GI50: 15.7 µM
  TGI: > 100 µM
NCI-H460 lung
  GI50: 5.13 µM
  TGI: > 100 µM
MOLT-4 leukemia
  GI50: 5.69 µM
  TGI: > 100 µM
HL-60(TB) leukemia
  GI50: 15.7 µM
  TGI: > 100 µM
KM12 colon
  GI50: 4.87 µM
  TGI: > 100 µM
HOP-92 NSCLC
  GI50: 1.38 µM
  TGI: 24.2 µM
ACHN renal
  GI50: 6.41 µM
  TGI: > 100 µM
PC-3 prostate
  GI50: 4.26 µM
  TGI: > 100 µM
LOX IMVI melanoma
  GI50: 3.39 µM
  TGI: 23.6 µM
SK-MEL-5 melanoma
  GI50: 3.49 µM
  TGI: 17.7 µM
UACC-62 melanoma
  GI50: 3.25 µM
  TGI: > 100 µM
TK-10 renal
  GI50: 52.6 µM
  TGI: > 100 µM
CAKI-1 renal
  GI50: 5.55 µM
  TGI: > 100 µM
NCI-H226 lung
  GI50: 6.44 µM
  TGI: > 100 µM
MDA-MB-231 breast
  GI50: 2.27 µM
  TGI: 34.8 µM
HCT-116 colon
  GI50: 2.44 µM
  TGI: 29.6 µM

## CN(C(=O)c1ccc(Cl)s1)C(=S)N(C)C(=O)c1ccc(Cl)s1
DU-145 prostate
  TGI: > 10 µM
UO-31 renal
  TGI: > 10 µM
RXF 393 renal
  TGI: > 10 µM
MCF7 breast
  TGI: > 10 µM
CCRF-CEM leukemia
  TGI: > 10 µM
HOP-62 NSCLC
  TGI: > 10 µM
SW-620 colon
  TGI: > 10 µM
OVCAR-5 ovarian
  TGI: > 10 µM
IGROV1 ovarian
  TGI: > 10 µM
NCI-H522 lung
  TGI: > 10 µM
OVCAR-3 ovarian
  TGI: > 10 µM
786-0 renal
  TGI: > 10 µM
NCI/ADR-RES ovarian
  TGI: > 10 µM
HCT-15 colon
  TGI: > 10 µM
K-562 leukemia
  TGI: > 10 µM
NCI-H23 lung
  TGI: > 10 µM
SF-295 CNS
  TGI: > 10 µM
SK-MEL-28 melanoma
  TGI: > 10 µM
SNB-19 CNS
  TGI: > 10 µM
SF-268 CNS
  TGI: > 10 µM
SN12C renal
  TGI: > 10 µM
A549 NSCLC
  TGI: > 10 µM
SR leukemia
  TGI: > 10 µM
RPMI-8226 leukemia
  TGI: > 10 µM
SNB-75 CNS
  TGI: > 10 µM
HS 578T breast
  TGI: > 10 µM
T-47D breast
  TGI: > 10 µM
HT29 colon
  TGI: > 10 µM
U251 CNS
  TGI: > 10 µM
MDA-N
  TGI: > 10 µM
SF-539 CNS
  TGI: > 10 µM
A498 renal
  TGI: > 10 µM
HCC-2998 colon
  TGI: > 10 µM
MALME-3M melanoma
  TGI: > 10 µM
SK-OV-3 ovarian
  TGI: > 10 µM
OVCAR-8 ovarian
  TGI: > 10 µM
SK-MEL-2 melanoma
  TGI: > 10 µM
OVCAR-4 ovarian
  TGI: > 10 µM
COLO 205 colon
  TGI: > 10 µM
BT-549 breast
  TGI: > 10 µM
EKVX NSCLC
  TGI: > 10 µM
UACC-257 melanoma
  TGI: > 10 µM
M14 melanoma
  TGI: > 10 µM
NCI-H460 lung
  TGI: > 10 µM
MOLT-4 leukemia
  TGI: > 10 µM
HL-60(TB) leukemia
  TGI: > 10 µM
KM12 colon
  TGI: > 10 µM
HOP-92 NSCLC
  TGI: > 10 µM
ACHN renal
  TGI: > 10 µM
PC-3 prostate
  TGI: > 10 µM
LOX IMVI melanoma
  TGI: > 10 µM
SK-MEL-5 melanoma
  TGI: > 10 µM
UACC-62 melanoma
  TGI: > 10 µM
TK-10 renal
  TGI: > 10 µM
CAKI-1 renal
  TGI: > 10 µM
NCI-H226 lung
  TGI: > 10 µM
MDA-MB-231 breast
  TGI: > 10 µM
HCT-116 colon
  TGI: > 10 µM

## O=C1OS2(OCc3cccc4cccc2c34)c2ccccc21 (stereo not given)
DU-145 prostate
  TGI: > 100 µM
UO-31 renal
  TGI: > 100 µM
MCF7 breast
  TGI: > 100 µM
CCRF-CEM leukemia
  TGI: > 100 µM
HOP-62 NSCLC
  TGI: > 100 µM
SW-620 colon
  TGI: > 100 µM
OVCAR-5 ovarian
  TGI: > 100 µM
IGROV1 ovarian
  TGI: > 100 µM
NCI-H522 lung
  TGI: > 100 µM
OVCAR-3 ovarian
  TGI: > 100 µM
786-0 renal
  TGI: > 100 µM
NCI/ADR-RES ovarian
  TGI: > 100 µM
HCT-15 colon
  TGI: > 100 µM
K-562 leukemia
  TGI: > 100 µM
NCI-H23 lung
  TGI: > 100 µM
SF-295 CNS
  TGI: > 100 µM
SK-MEL-28 melanoma
  TGI: > 100 µM
SNB-19 CNS
  TGI: > 100 µM
SF-268 CNS
  TGI: > 100 µM
SN12C renal
  TGI: > 100 µM
A549 NSCLC
  TGI: > 100 µM
SR leukemia
  TGI: > 100 µM
RPMI-8226 leukemia
  TGI: > 100 µM
SNB-75 CNS
  TGI: > 100 µM
T-47D breast
  TGI: > 100 µM
MDA-MB-435
  TGI: > 100 µM
HT29 colon
  TGI: > 100 µM
U251 CNS
  TGI: > 100 µM
MDA-N
  TGI: > 100 µM
SF-539 CNS
  TGI: > 100 µM
A498 renal
  TGI: > 100 µM
HCC-2998 colon
  TGI: > 100 µM
MALME-3M melanoma
  TGI: > 100 µM
SK-OV-3 ovarian
  TGI: > 100 µM
SK-MEL-2 melanoma
  TGI: > 100 µM
OVCAR-4 ovarian
  TGI: > 100 µM
COLO 205 colon
  TGI: > 100 µM
BT-549 breast
  TGI: > 100 µM
EKVX NSCLC
  TGI: > 100 µM
UACC-257 melanoma
  TGI: > 100 µM
M14 melanoma
  TGI: > 100 µM
NCI-H460 lung
  TGI: > 100 µM
MOLT-4 leukemia
  TGI: > 100 µM
HL-60(TB) leukemia
  TGI: > 100 µM
KM12 colon
  TGI: > 100 µM
HOP-92 NSCLC
  TGI: > 100 µM
ACHN renal
  TGI: > 100 µM
PC-3 prostate
  TGI: > 100 µM
LOX IMVI melanoma
  TGI: > 100 µM
SK-MEL-5 melanoma
  TGI: > 100 µM
UACC-62 melanoma
  TGI: > 100 µM
TK-10 renal
  TGI: > 100 µM
CAKI-1 renal
  TGI: > 100 µM
NCI-H226 lung
  TGI: > 100 µM
MDA-MB-231 breast
  TGI: > 100 µM
HCT-116 colon
  TGI: > 100 µM
